Reference: ChEMBL document CHEMBL4364307, “2-(phenylthio)ethylidene derivatives as anti-Trypanosoma cruzi compounds: Structural design, synthesis and antiparasitic activity” (Eur J Med Chem, 2019)
Active and inactive are the calls of the source. The calls are words filed in the database; no cut-off is given here.

Key:
Trypanosoma cruzi [1] = test: Antitrypanosomal activity against bloodstream form of Trypanosoma cruzi trypomastigotes after 24 hrs by Neubauer chamber method; format: functional, organism-based
[2] = Selectivity index, ratio of maximum non-toxic concentration for Balb/c mouse splenocyte to IC50 for bloodstream form of Trypanosoma cruzi trypomastigotes; format: toxicity; settings: mouse splenocytes, read-out: Selectivity Index
Trypanosoma cruzi [3] = test: Antitrypanosomal activity against Trypanosoma cruzi Dm28c epimastigotes after 5 days by Neubauer chamber method; format: functional, organism-based; settings: 120 h
[4] = Cytotoxicity against Balb/c mouse splenocyte assessed as reduction in cell viability after 24 hrs by [3H]thymidine incorporation based beta scintillation counting analysis; settings: mouse splenocytes
[5] = biological target: Cruzipain (Trypanosoma cruzi) (UniProt P25779); test: Inhibition of Trypanosoma cruzi cruzain at 100 uM using Z-FR-AMC as substrate preincubated for 10 mins followed by substrate addition and measured for 5 mins by fluorimetric analysis relative to control
Sequence of Cruzipain (Trypanosoma cruzi) (P25779 123-467 limits assumed): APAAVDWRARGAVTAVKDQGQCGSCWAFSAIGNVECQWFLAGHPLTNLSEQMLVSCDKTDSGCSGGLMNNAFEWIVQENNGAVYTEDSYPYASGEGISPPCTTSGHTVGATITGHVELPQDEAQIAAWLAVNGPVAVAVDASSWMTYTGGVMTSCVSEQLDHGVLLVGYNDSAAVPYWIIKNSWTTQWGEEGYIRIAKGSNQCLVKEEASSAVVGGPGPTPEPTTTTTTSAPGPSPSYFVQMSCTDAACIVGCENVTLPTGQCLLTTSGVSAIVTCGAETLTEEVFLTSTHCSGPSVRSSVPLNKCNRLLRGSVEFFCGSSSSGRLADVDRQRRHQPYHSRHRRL

Trypanosoma cruzi [6] = test: Induction of apoptosis in bloodstream form of Trypanosoma cruzi trypomastigotes at 1.1 mM after 24 hrs by annexin V-FITC/propidium iodide staining based flow cytometry relative to control; format: functional, organism-based
Trypanosoma cruzi [7] = test: Induction of apoptosis in bloodstream form of Trypanosoma cruzi trypomastigotes at 0.25 mM after 24 hrs by annexin V-FITC/propidium iodide staining based flow cytometry relative to control; format: functional, organism-based
Trypanosoma cruzi [8] = test: (§1) Antiparasitic activity against bloodstream form of Trypanosoma cruzi Y strain trypomastigotes infected in Balb/c mouse peritoneal macrophage assessed as reduction in percent of infected macrophages at 20 uM incubated for 6 hrs followed by replacement of fresh medium measured after 3 days by Giemsa-staining based optical microscopic analysis; format: functional, organism-based
Trypanosoma cruzi [9] = test: Antiparasitic activity against bloodstream form of Trypanosoma cruzi Y strain trypomastigotes infected in Balb/c mouse peritoneal macrophage incubated for 6 hrs followed by replacement of fresh medium measured after 3 days by Giemsa-staining based optical microscopic analysis; format: functional, organism-based
Trypanosoma cruzi [10] = test: as §1, with “in number” for “in percent”, “of amastigotes/100” for “of infected”; format: functional, organism-based
Trypanosoma cruzi [11] = test: Antiparasitic activity against bloodstream form of Trypanosoma cruzi Y strain trypomastigotes infected in Balb/c mouse peritoneal macrophage at 20 uM incubated for 2 hrs followed by extracellular parasites wash out and measured after 2 hrs by Giemsa staining-based optical microscopic analysis
Trypanosoma cruzi [12] = test: Antitrypanosomal activity against Trypanosoma cruzi Y strain epimastigotes after 15 hrs by hemocytometer based cell counting method; format: functional, organism-based
Trypanosoma cruzi [13] = test: Induction of morphological changes in Trypanosoma cruzi bloodstream trypomastigotes assessed as appearance myelin figures in cytoplasm at 3 uM after 24 hrs by TEM analysis; format: functional, organism-based
Trypanosoma cruzi [14] = test: Induction of morphological changes in Trypanosoma cruzi bloodstream trypomastigotes assessed as appearance of atypical vacuoles in cytoplasm at 3 uM after 24 hrs by TEM analysis; format: functional, organism-based
Trypanosoma cruzi [15] = test: Induction of morphological changes in Trypanosoma cruzi bloodstream trypomastigotes assessed as appearance of myelin figures in mitochondria at 3 uM after 24 hrs by TEM analysis; format: functional, organism-based
Trypanosoma cruzi [16] = test: Induction of morphological changes in Trypanosoma cruzi bloodstream trypomastigotes assessed as disorganization of golgi complex at 3 uM after 24 hrs by TEM analysis; format: functional, organism-based
Cruzipain = Cruzipain (Trypanosoma cruzi, UniProt P25779); test: Inhibition of Trypanosoma cruzi cruzain using Z-FR-AMC as substrate preincubated for 10 mins followed by substrate addition and measured for 5 mins by fluorimetric analysis
Sequence of Cruzipain (P25779 whole entry): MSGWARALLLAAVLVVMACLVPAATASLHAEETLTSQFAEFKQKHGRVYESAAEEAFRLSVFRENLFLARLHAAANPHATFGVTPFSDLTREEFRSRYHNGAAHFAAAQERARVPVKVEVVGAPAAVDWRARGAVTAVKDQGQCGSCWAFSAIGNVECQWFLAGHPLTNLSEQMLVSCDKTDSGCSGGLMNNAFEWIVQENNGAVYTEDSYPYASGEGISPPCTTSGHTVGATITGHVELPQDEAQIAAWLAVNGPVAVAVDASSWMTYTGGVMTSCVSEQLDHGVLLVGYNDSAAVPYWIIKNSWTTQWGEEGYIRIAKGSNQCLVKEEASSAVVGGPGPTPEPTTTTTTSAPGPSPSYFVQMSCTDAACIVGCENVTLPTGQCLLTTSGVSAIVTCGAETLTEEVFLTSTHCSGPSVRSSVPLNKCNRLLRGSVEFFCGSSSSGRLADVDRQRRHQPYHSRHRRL

Row | SMILES | IC50 (Trypanosoma cruzi [1]) | selectivity ratio [2] | IC50 (Trypanosoma cruzi [3]) | MNTC at 24 h [4] | inhibition [5] | other results
1 | COc1ccc(-c2csc(N/N=C/CSc3ccccc3)n2)cc1 | 18.5 µM | > 15.2 | 62.7 µM | > 281 µM |  | 
2 | Cc1cccc(SC/C=N/NC(N)=S)c1 | 1.8 µM | 2.3 | 6.3 µM | < 4.2 µM | 43.4% | Activity (Trypanosoma cruzi [6]): Active; Activity (Trypanosoma cruzi [7]): Active
3 | C(/CSc1ccccc1)=N\Nc1nc(-c2ccccc2)cs1 | 5.2 µM | 29.5 | 59.4 µM | 154 µM |  | Activity (Trypanosoma cruzi [6]): Active; Activity (Trypanosoma cruzi [7]): Active
4 | Cc1ccc(-c2csc(N/N=C/CSc3ccccc3)n2)cc1 | 5.7 µM | 25.8 | 9.4 µM | 147 µM | 11.9% | Activity (Trypanosoma cruzi [8]): Active; IC50 (Trypanosoma cruzi [9]): 18.8 µM; Activity (Trypanosoma cruzi [10]): Active; Activity (Trypanosoma cruzi [6]): Active; Activity (Trypanosoma cruzi [7]): Active
5 | O=[N+]([O-])c1ccc(-c2csc(N/N=C/CSc3ccccc3)n2)cc1 | 8.4 µM | 8 | 16 µM | 67.5 µM | 18.9% | Activity (Trypanosoma cruzi [8]): Active; IC50 (Trypanosoma cruzi [9]): 19.3 µM; Activity (Trypanosoma cruzi [10]): Active
6 | O=C(Cn1ccnc1[N+](=O)[O-])NCc1ccccc1 [BENZNIDAZOLE] | 6.2 µM | 15.5 |  |  |  | 
7 | C/C(COc1ccccc1)=N\Nc1nc(-c2ccc(Br)cc2)cs1 |  |  | 49.8 µM |  |  | 
8 | NC(=S)N/N=C/CSc1ccc(F)cc1 | 5.7 µM | 3.6 | 6.1 µM | 20.5 µM | 27.5% | 
9 | Clc1ccc(-c2csc(N/N=C/CSc3ccccc3)n2)cc1 | 4.1 µM | > 67.8 | 6.8 µM | > 278 µM | 17.6% | Activity (Trypanosoma cruzi [8]): Active; IC50 (Trypanosoma cruzi [9]): 7.88 µM; inhibition (Trypanosoma cruzi [11]): Active; Activity (Trypanosoma cruzi [10]): Active; Activity (Trypanosoma cruzi [6]): Active; Activity (Trypanosoma cruzi [7]): Active
10 | Brc1ccc(-c2csc(N/N=C/CSc3ccccc3)n2)cc1 | 14.3 µM | > 16.7 | 5.4 µM | > 239 µM | 7% | 
11 | C/C(COc1ccccc1)=N\Nc1nc(-c2cccc([N+](=O)[O-])c2)cs1 | 3.8 µM |  | 4 µM |  |  | 
12 | NC(=S)N/N=C/CSc1ccc(Cl)cc1 | 14.1 µM | 0.3 | 6.2 µM | < 3.8 µM | 25.2% | 
13 | Clc1ccc(-c2csc(N/N=C/CSc3ccccc3)n2)c(Cl)c1 | 4.1 µM | 30.9 | 7.9 µM | 127 µM | 67.2% | Activity (Trypanosoma cruzi [6]): Active; Activity (Trypanosoma cruzi [7]): Active
14 | NC(=S)N/N=C/CSc1ccccc1 | 89 µM | 0.25 | 102 µM |  | 42.1% | 
15 | CC(C)C1S/C(=N/N=C/CSc2ccccc2)NC1=O (stereo not drawn) |  |  |  |  |  | IC50 (Trypanosoma cruzi [12]): 0.3 µM
16 | Cc1ccc(SC/C=N/NC(N)=S)cc1 |  |  | 9.6 µM | 4.2 µM | 31.4% | 
17 | C/C(COc1ccccc1)=N\Nc1nc(-c2ccncc2)cs1 | 3.9 µM |  | 4 µM |  |  | 
18 | COc1ccc(SC/C=N/NC(N)=S)cc1 | 39.7 µM | 0.1 | 32.1 µM | < 3.9 µM | 34.6% | 
19 | Cc1ccccc1SC/C=N/NC(N)=S | 6.1 µM | 6.9 | 15.3 µM | 41.8 µM | 13.9% | 
20 | Fc1ccc(-c2csc(N/N=C/CSc3ccccc3)n2)cc1 | 41.7 µM | > 7 |  | > 291 µM | 22.9% | 
21 | NC(=S)N/N=C/CSc1ccc(Br)cc1 | 6.6 µM | 0.5 | 15.4 µM | < 3.3 µM | 16.6% | Activity (Trypanosoma cruzi [6]): Active; Activity (Trypanosoma cruzi [7]): Active
22 | NC(=S)N/N=C/CSc1ccccc1Cl | 6.2 µM | 0.6 | 47.7 µM | < 3.8 µM | 46% | 
23 | Cc1sc(N/N=C/CSc2ccccc2)nc1-c1ccc(Br)cc1 | 2.6 µM | > 95.1 | 4.1 µM | > 247 µM | 27% | Activity (Trypanosoma cruzi [13]): Active; Activity (Trypanosoma cruzi [8]): Active; Activity (Trypanosoma cruzi [14]): Active; IC50 (Trypanosoma cruzi [9]): 10.2 µM; inhibition (Trypanosoma cruzi [11]): Active; Activity (Trypanosoma cruzi [15]): Active; Activity (Trypanosoma cruzi [16]): Active; Activity (Trypanosoma cruzi [10]): Active; Activity (Trypanosoma cruzi [6]): Active; Activity (Trypanosoma cruzi [7]): Active
24 | Cc1ccc(C)c(SC/C=N/NC(N)=S)c1 | 5.9 µM | 0.7 | 6.2 µM | < 3.9 µM | 87.6% | IC50 (Cruzipain): 3.3 µM; Activity (Trypanosoma cruzi [6]): Active; Activity (Trypanosoma cruzi [7]): Active
25 | NC(=S)N/N=C/CSc1cccc(Cl)c1 | 14.1 µM | 6.8 | 5.5 µM | 96.2 µM | 75.9% | IC50 (Cruzipain): 19 µM
26 | O=[N+]([O-])c1cccc(-c2csc(N/N=C/CSc3ccccc3)n2)c1 | 19.2 µM | 7 | 8.4 µM | 135 µM | 16.2% | 
27 | Clc1ccc(-c2csc(N/N=C/CSc3ccccc3)n2)cc1Cl | 15.2 µM | 8.3 | 56.5 µM | 127 µM | 62.9% | 
28 | NC(=S)N/N=C/CSc1cc(Cl)ccc1Cl | 8.2 µM | 10.4 | 6.1 µM | 85 µM | 37.4% | 
